Experimental data reported in publication PMC11764150 (2025).
Like-named read-outs stand apart in the source and are kept apart here.

Assays:
[1] = tested on: MET Apt-AuNP (biotin-ended MET aptamer) (DNA, aptamer) AGGAATTCAGATCTCCCTGCAGAAAACAGACCACCCACTTTGAATCCACTTGACTCGAGGAGCTCAGGATCCCG; assay: competitive lateral flow assay
[2] = tested on: COC Apt-AuNP (biotin-ended COC aptamer) (DNA, aptamer) AGGAATTCAGATCTCCCTGCAGTTCGAGGAAGAATAGACCTGCCTTCTAATAGCTCGAGGAGCTCAGGATCCCG; assay: competitive lateral flow assay
[3] = tested on: MET aptamer (DNA, aptamer) AGGAATTCAGATCTCCCTGCAGAAAACAGACCACCCACTTTGAATCCACTTGACTCGAGGAGCTCAGGATCCCG; assay: isothermal titration calorimetry; settings: 100 mM NaCl, 2.7 mM KCl, 2 mM MgCl2
[4] = tested on: COC aptamer (DNA, aptamer) AGGAATTCAGATCTCCCTGCAGTTCGAGGAAGAATAGACCTGCCTTCTAATAGCTCGAGGAGCTCAGGATCCCG; assay: isothermal titration calorimetry; settings: 100 mM NaCl, 2.7 mM KCl, 2 mM MgCl2

| binding [1] | binding [2] | Kd [3] [nM] | binding ([2]; synthetic saliva, gold nanoparticle conjugate, COC-BSA test line) | binding ([2]; synthetic saliva, gold nanoparticle conjugate, COC-BSA test line, positive at 5.0 ng/mL to 1.0 µg/mL) | Kd [4] [nM] | SMILES |
| --- | --- | --- | --- | --- | --- | --- |
| no | no | – | – | – | – | CCCCCc1cc(O)c2c(c1)OC(C)(C)[C@@H]1CCC(C)=C[C@@H]21 |
| yes | – | 570 | no | – | – | CN[C@@H](C)Cc1ccccc1 |
| no | no | – | – | – | – | COc1ccc2c3c1O[C@H]1[C@@H](O)C=C[C@H]4[C@@H](C2)N(C)CC[C@@]341 |
| no | – | – | – | yes | 306 | COC(=O)[C@H]1[C@@H](OC(=O)c2ccccc2)C[C@@H]2CC[C@H]1N2C |
